Source: PubChem BioAssay (NCI)
Several values for one entry are separate records, joined by “and”; a condition that tells them apart may be missing. Equal values may be shown once.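 Five compound concentrations were applied to cells in 96-well plates for 48 hours; endpoints were derived by simple linear interpolation of the resulting dose-response curve. The concentration for 50% growth inhibition is given as GI50. TGI: total growth inhibition.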

What was measured:
Test in all cases: NCI anticancer screen, dose series, 48 h
DU-145 prostate = system: DU-145 prostate
HL-60(TB) leukemia = system: HL-60(TB) leukemia
HT29 colon = system: HT29 colon
M14 melanoma = system: M14 melanoma
MALME-3M melanoma = system: MALME-3M melanoma
OVCAR-3 ovarian = system: OVCAR-3 ovarian
OVCAR-4 ovarian = system: OVCAR-4 ovarian
SF-539 CNS = system: SF-539 CNS
SK-MEL-5 melanoma = system: SK-MEL-5 melanoma
UO-31 renal = system: UO-31 renal

Compound	GI50 (DU-145 prostate) [µM]	TGI (DU-145 prostate)	GI50 (HL-60(TB) leukemia) [µM]	TGI (HL-60(TB) leukemia) [µM]	GI50 (HT29 colon) [µM]	TGI (HT29 colon)	GI50 (M14 melanoma) [µM]	TGI (M14 melanoma)	GI50 (MALME-3M melanoma) [µM]	TGI (MALME-3M melanoma)	GI50 (OVCAR-3 ovarian)	TGI (OVCAR-3 ovarian)	GI50 (OVCAR-4 ovarian) [µM]	TGI (OVCAR-4 ovarian)	GI50 (SF-539 CNS) [µM]	TGI (SF-539 CNS)	GI50 (SK-MEL-5 melanoma) [µM]	TGI (SK-MEL-5 melanoma)	GI50 (UO-31 renal) [µM]	TGI (UO-31 renal)
CC1(C)CC(=O)c2c(ccc(C(=O)C[C@@H](N)CO)c2N)O1	0.849	> 93.1 µM	4.03	> 63.7	0.34	> 91.1 µM	0.664	8.41 µM	12.5	> 76.9 µM	0.431 µM	> 38.2 µM	17.7	> 100 µM	0.399	5.22 µM	1.37	> 43.9 µM	1.1	> 100 µM
CCN(CC)CCCNc1[nH]ncc2c(C)c3nc4ccccc4c3cc12	0.555	11.2 µM and 5.62 µM	–	1.89	0.362	1.71 µM and 2.83 µM	1.16	2.44 µM and 6.41 µM	0.918	2.34 µM and 3.81 µM	0.589 µM	3.14 µM and 7.11 µM	0.397	1.75 µM and 2.42 µM	0.373	1.81 µM and 6.09 µM	1.41	2.78 µM and 5.05 µM	3.71	14.6 µM and 22 µM
C[C@@](O)(/C=C/[C@H]1CC=CC(=O)O1)[C@@H](C[C@@H](O)\C=C/C=C\C=C\CO)OP(=O)(O)O	–	32.5 µM	–	2.99	–	6.33 µM	–	2.69 µM	6.94	16 µM and 14.3 µM	12.1 µM and 2.94 µM	27.7 µM and 12.7 µM	–	25.5 µM	5.28	11.5 µM and 23 µM	7.89	21.8 µM and 27 µM	9.39	19.5 µM and 22 µM
COc1ccc(Oc2cc(NCCC(F)(F)F)c3ncc(-c4ccc(C(=O)NC5CC5)c(C)c4)n3n2)c(F)c1F	0.423	> 100 µM	2.22	> 100	0.506	> 100 µM	0.339	> 46.1 µM	2.08	54.8 µM	8.67 µM	> 91.9 µM	3.85	> 87.2 µM	0.758	21.9 µM	4.75	> 100 µM	0.355	> 53.6 µM
Nc1nc(-c2cc(-c3cccc4ccccc34)nc(N)n2)cc(-c2cccc3ccccc23)n1	–	> 100 µM	–	> 100	–	> 100 µM	–	> 100 µM	–	> 100 µM	–	> 100 µM	–	> 100 µM	–	> 100 µM	–	> 100 µM	–	> 100 µM
CCCCCSC1C2C(=O)C(Br)=CC13CCNc1c(O)c4c5c(c13)=[N+]2CCC=5C=N4 (centres undefined)	1.74	3.72 µM	0.671	2.4	0.49	1.54 µM	1.51	3.68 µM	0.332	1.37 µM	0.405 µM	1.44 µM	0.256	0.609 µM	2.78	5.08 µM	1.85	3.96 µM	2.11	4.42 µM
CNC(=O)c1cc2c(Oc3ccc(NC(=S)NC(=O)Cc4ccccc4)cc3F)ccnc2cc1OC	> 31.4	> 100 µM	> 100	> 100	3.16	> 100 µM	> 24.3	> 100 µM	8.85	> 100 µM	> 28.6 µM	> 100 µM	5.44	> 100 µM	0.549	> 30.3 µM	> 20.6	> 100 µM	2.56	> 100 µM
CNCCCn1c2c(c3ccc(F)cc3c1=O)C(=O)c1cc(OC)cnc1-2	0.202	1.12 µM	0.221	0.753	0.145	0.624 µM	0.308	1.63 µM	0.318	1.55 µM	0.263 µM	1.39 µM	0.421	10.5 µM	0.368	1.36 µM	0.307	1.08 µM	0.13	0.809 µM
Clc1ccc(N2CCC(N3CCCC3)CC2)cc1-c1nc2ccccc2[nH]1	36.7	> 100 µM	23.5	50.1	15.1	35.8 µM	16.7	31.8 µM	17.4	33.6 µM	17.8 µM	40.4 µM	27.1	> 91.4 µM	17	32.1 µM	6.59	17.1 µM	16.7	34 µM
CC(C)(C)OC(=O)NCCCCCCCCCCn1c2c(c3ccccc3c1=O)C(=O)c1ccccc1-2	96.6	> 100 µM	32.6	> 100	> 100	> 100 µM	> 100	> 100 µM	> 100	> 100 µM	> 100 µM	> 100 µM	> 100	> 100 µM	43.1	> 100 µM	> 100	> 100 µM	> 100	> 100 µM
